From ChEMBL document CHEMBL1201862, “PubChem BioAssay data set” (2004)
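Assay format: 96-well plates, 48-hour exposure. Here, GI50 denotes the concentration required for 50% inhibition of growth.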 The source made the active and inactive calls. Cut-off read from the data, not from the text of the source: active = GI50 up to about 1.1 µM and inactive = higher.

Legend:
Test in all cases: NCI tumour cell line growth inhibition, 48 h
M14 = test system: M14
CAKI-1 = test system: CAKI-1
T47D = test system: T47D
OVCAR-5 = test system: OVCAR-5
BT-549 = test system: BT-549
COLO 205 = test system: COLO 205
SN12C = test system: SN12C
OVCAR-8 = test system: OVCAR-8
HCT-15 = test system: HCT-15
MOLT-4 = test system: MOLT-4
SF-268 = test system: SF-268
NCI-H226 = test system: NCI-H226
MDA-MB-231 = test system: MDA-MB-231
HCT-116 = test system: HCT-116
KM12 = test system: KM12
CCRF-CEM = test system: CCRF-CEM
K562 = test system: K562

`N#CC(c1nc2ccccc2s1)c1nc(Cl)ncc1Br` (stereo not drawn) was tested, and the GI50 (M14) was 44.6 µM (inactive), the GI50 (CAKI-1) was 33.4 µM (inactive) and the GI50 (T47D) was 64.7 µM (inactive). The GI50 (OVCAR-5) was > 100 µM (inactive), the GI50 (BT-549) was 25.2 µM (inactive) and the GI50 (COLO 205) was 46.3 µM (inactive). For the same compound, the GI50 (SN12C) was 30.6 µM (inactive), the GI50 (OVCAR-8) was 30.4 µM (inactive) and the GI50 (HCT-15) was 29.1 µM. For the same compound, the GI50 (MOLT-4) was 72.4 µM (inactive), the GI50 (SF-268) was 34 µM (inactive) and the GI50 (NCI-H226) was 39.5 µM (inactive). For the same compound, the GI50 (MDA-MB-231) was 39.2 µM (inactive), the GI50 (HCT-116) was 23 µM (inactive) and the GI50 (KM12) was 40.1 µM (inactive).
`COc1ccc(NC(=S)N/N=C\c2ccc(NC(C)=O)cc2)cc1` was tested, and the GI50 (M14) was > 100 µM (inactive), the GI50 (CAKI-1) was > 100 µM (inactive) and the GI50 (T47D) was > 100 µM (inactive). For the same compound, the GI50 (OVCAR-5) was > 100 µM (inactive), the GI50 (BT-549) was > 100 µM (inactive) and the GI50 (COLO 205) was > 100 µM (inactive). The GI50 (SN12C) was > 100 µM (inactive), the GI50 (CCRF-CEM) was > 100 µM (inactive) and the GI50 (MOLT-4) was > 100 µM (inactive). For the same compound, the GI50 (MDA-MB-231) was > 100 µM (inactive), the GI50 (HCT-116) was > 100 µM (inactive) and the GI50 (KM12) was > 100 µM (inactive).
With `O=C1c2ccccc2-c2ccc(NC(=O)C3CCCCC3C(=O)O)cc21` (stereo not drawn) the GI50 (M14) was > 100 µM (inactive), the GI50 (CAKI-1) was > 100 µM (inactive) and the GI50 (T47D) was > 100 µM (inactive). For the same compound, the GI50 (OVCAR-5) was > 100 µM (inactive), the GI50 (BT-549) was > 100 µM (inactive) and the GI50 (COLO 205) was > 100 µM (inactive). For the same compound, the GI50 (SN12C) was 96.4 µM (inactive), the GI50 (OVCAR-8) was > 100 µM (inactive) and the GI50 (HCT-15) was greater than 100 µM. For the same compound, the GI50 (CCRF-CEM) was > 100 µM (inactive), the GI50 (K562) was > 100 µM (inactive) and the GI50 (MOLT-4) was > 100 µM (inactive). The GI50 (SF-268) was > 100 µM (inactive), the GI50 (NCI-H226) was > 100 µM (inactive) and the GI50 (MDA-MB-231) was > 100 µM (inactive). For the same compound, the GI50 (HCT-116) was > 100 µM (inactive) and the GI50 (KM12) was > 100 µM (inactive).
With `C/C(=N\Nc1nc2ccccc2n1C)c1cc2ccccc2cn1` the GI50 (M14) was < 0.0335 µM (active), the GI50 (CAKI-1) was < 0.01 µM (active) and the GI50 (T47D) was < 0.0447 µM (active). For the same compound, the GI50 (BT-549) was 2.8 µM (inactive), the GI50 (COLO 205) was < 0.01 µM (active) and the GI50 (SN12C) was < 0.01 µM (active). For the same compound, the GI50 (OVCAR-8) was < 0.0182 µM (active), the GI50 (HCT-15) was less than 0.01 µM and the GI50 (CCRF-CEM) was 0.0161 µM (active). The GI50 (K562) was < 0.0135 µM (active), the GI50 (MOLT-4) was < 0.01 µM (active) and the GI50 (SF-268) was < 0.0294 µM (active). For the same compound, the GI50 (NCI-H226) was 0.0448 µM (active), the GI50 (MDA-MB-231) was < 0.01 µM (active) and the GI50 (HCT-116) was < 0.01 µM (active). For the same compound, the GI50 (KM12) was < 0.025 µM (active).
With `CCc1cccc(C(C)C)c1NC(=O)C(=O)Nn1c(S)nc2ccccc2c1=O` the GI50 (M14) was > 100 µM (inactive), the GI50 (CAKI-1) was > 100 µM (inactive) and the GI50 (T47D) was > 100 µM (inactive). The GI50 (OVCAR-5) was > 100 µM (inactive), the GI50 (BT-549) was > 100 µM (inactive) and the GI50 (SN12C) was > 100 µM (inactive). The GI50 (OVCAR-8) was > 100 µM (inactive), the GI50 (HCT-15) was greater than 100 µM and the GI50 (CCRF-CEM) was > 100 µM (inactive). The GI50 (K562) was > 100 µM (inactive), the GI50 (MOLT-4) was > 100 µM (inactive) and the GI50 (SF-268) was > 100 µM (inactive). For the same compound, the GI50 (NCI-H226) was > 100 µM (inactive), the GI50 (MDA-MB-231) was 76.2 µM (inactive) and the GI50 (HCT-116) was > 100 µM (inactive). For the same compound, the GI50 (KM12) was > 100 µM (inactive).
`O=[N+]([O-])c1sc2ccc(Cl)cc2c1Nc1ccc(Cl)cc1` was tested, and the GI50 (M14) was > 100 µM (inactive), the GI50 (T47D) was > 100 µM (inactive) and the GI50 (OVCAR-5) was > 100 µM (inactive). For the same compound, the GI50 (BT-549) was > 100 µM (inactive), the GI50 (COLO 205) was > 100 µM (inactive) and the GI50 (SN12C) was > 100 µM (inactive). For the same compound, the GI50 (OVCAR-8) was > 100 µM (inactive), the GI50 (HCT-15) was greater than 100 µM and the GI50 (CCRF-CEM) was > 100 µM (inactive). The GI50 (K562) was > 100 µM (inactive), the GI50 (MOLT-4) was > 100 µM (inactive) and the GI50 (SF-268) was > 100 µM (inactive). For the same compound, the GI50 (NCI-H226) was > 100 µM (inactive), the GI50 (MDA-MB-231) was > 100 µM (inactive) and the GI50 (KM12) was > 100 µM (inactive).
`O=C(O)CCC(=O)Nc1ccc2c(c1)S(=O)(=O)N(CC(=O)O)C2=O` was tested, and the GI50 (M14) was > 100 µM (inactive), the GI50 (CAKI-1) was > 100 µM (inactive) and the GI50 (T47D) was > 100 µM (inactive). The GI50 (OVCAR-5) was > 100 µM (inactive), the GI50 (BT-549) was > 100 µM (inactive) and the GI50 (COLO 205) was > 100 µM (inactive). For the same compound, the GI50 (SN12C) was > 100 µM (inactive), the GI50 (OVCAR-8) was > 100 µM (inactive) and the GI50 (HCT-15) was greater than 100 µM. The GI50 (CCRF-CEM) was > 100 µM (inactive), the GI50 (K562) was > 100 µM (inactive) and the GI50 (MOLT-4) was > 100 µM (inactive). For the same compound, the GI50 (NCI-H226) was > 100 µM (inactive), the GI50 (MDA-MB-231) was > 100 µM (inactive) and the GI50 (HCT-116) was > 100 µM (inactive). The GI50 (KM12) was 21.9 µM (inactive).
In the case of `COc1cc2c(cc1OC)[C@H](C)N1CCc3cc(OC)c(OC)cc3[C@@H]1C2`, the GI50 (CAKI-1) is reported as > 100 µM (inactive), the GI50 (T47D) is reported as > 100 µM (inactive) and the GI50 (OVCAR-5) is reported as > 100 µM (inactive). The GI50 (BT-549) was > 100 µM (inactive), the GI50 (COLO 205) was > 100 µM (inactive) and the GI50 (SN12C) was > 100 µM (inactive). For the same compound, the GI50 (OVCAR-8) was > 100 µM (inactive), the GI50 (HCT-15) was greater than 100 µM and the GI50 (CCRF-CEM) was > 100 µM (inactive). The GI50 (K562) was > 100 µM (inactive), the GI50 (MOLT-4) was > 100 µM (inactive) and the GI50 (SF-268) was > 100 µM (inactive). For the same compound, the GI50 (NCI-H226) was > 100 µM (inactive), the GI50 (MDA-MB-231) was > 100 µM (inactive) and the GI50 (HCT-116) was > 100 µM (inactive). For the same compound, the GI50 (KM12) was > 100 µM (inactive).
With `O=C(O)C(/C=C/c1ccccc1)c1ccccc1` (stereo not drawn) the GI50 (M14) was > 100 µM (inactive), the GI50 (T47D) was > 100 µM (inactive) and the GI50 (OVCAR-5) was > 100 µM (inactive). The GI50 (BT-549) was > 100 µM (inactive), the GI50 (COLO 205) was > 100 µM (inactive) and the GI50 (SN12C) was > 100 µM (inactive). The GI50 (OVCAR-8) was > 100 µM (inactive), the GI50 (HCT-15) was greater than 100 µM and the GI50 (CCRF-CEM) was 14.3 µM (inactive). The GI50 (K562) was 84.3 µM (inactive), the GI50 (MOLT-4) was 6.59 µM (inactive) and the GI50 (SF-268) was > 100 µM (inactive). For the same compound, the GI50 (NCI-H226) was > 100 µM (inactive), the GI50 (MDA-MB-231) was > 100 µM (inactive) and the GI50 (HCT-116) was > 100 µM (inactive).
